Common to all, as to assay type: cell-based
Assay [1] relates to stress-inducible HVA1 promoter. Nature of the assay: HVA1-SGFP reporter expression in maize leaf protoplasts under stress/ABA treatment. The text has this: Responses to multiple stress treatments were monitored using green-fluorescent protein (GFP) as a vital reporter (Chiu et al. Curr. Biol. 6:225, 1996), using a single cell maize leaf protoplast system (Sheen, EMBO J 12:3497, 1993). A chimeric gene was generated by fusing the stress-inducible CDPK HVA1 promoter (Straub et al., Plant Mol. Biol. 26:617, 1994) to a synthetic GFP sequence (HVA1-SGFP) (Chiu et al. Curr. Biol. 6:225, 1996). The barley HVA1 promoter was obtained by PCR using barley genomic DNA and two primers: 5′[…]-3′ (SEQ ID NO: 17) and 5′-[…]-3′ (SEQ ID NO: 18). The HVA1 promoter and the SGFP were fused at the ATG NcoI site. The CDPK HVA1 gene has been reported to be activated by multiple stress signals in vegetative tissues (Straub et al., Plant Mol. Biol. 26:617, 1994). […]
Maize leaf protoplasts were electroporated with the plasmid DNA carrying HVA1-SGFP and divided (10^5 cells/ml per sample) for various treatments: constant light (15 μEm^−2S^−1) at 23° C. for sixteen hours (Control), 0° C. for four hours followed by twelve hours at 23° C. […] About 10^5 protoplasts from each treatment were observed using a fluorescence microscope as described by Chiu et al. (Curr. Biol. 6:225, 1996). […] About 50% of the protoplasts, showing green/yellow fluorescence after the induction, were transiently transformed. […]

Assay [2] has as its system HVA1 promoter. Nature of the assay: HVA1-LUC expression with constitutively active or null PP2C effector in maize leaf protoplasts. The conditions noted are these: ABA treatment. The text has this: To further support the idea that ATCDPK1 and ATCDPK1a are positive regulators in plant stress signal transduction, the effect of a specific and constitutively active Arabidopsis protein phosphatase 2C (PP2C) capable of abolishing ABA responses (Leung et al., Science 264:1448, 1994; Meyer et al., Science 264:1452, 1994; Armstrong et al., Proc. Natl. Acad. Sci. USA 92:9520, 1995) was examined as follows. Maize leaf protoplasts were electroporated with HVA1-LUC alone or with the effectors as indicated. […] The experiments with the constitutively active PP2C or the null PP2C were performed with two concentrations of plasmid DNA (+, 20 μg and ++, 60 μg) (FIG. 4C). LUC and GUS assays were performed with 2% of the cell lysates as described previously by Sheen (EMBO J. 12:3497, 1993; Jefferson, Plant Mol. Biol. Rep. 5:387, 1987; and Luehrsen et al., Meth. Enz. 216:397, 1992). Relative LUC activities from duplicated samples are shown. The experiment was repeated three times with similar results (FIG. 4C).

Assay [3] relates to stress-inducible HVA1 promoter. Nature of the assay: HVA1-SGFP expression in maize leaf protoplasts treated with Ca2+ ionophores. To be noted: 1 mM Ca2+ alone or with 100 nM ionophore in incubation medium. The text has this:
The role of Ca^2+ as a second messenger in multiple stress responses was also studied. The effects of increased intracellular Ca^2+ on HVA1-SGFP expression in maize leaf protoplasts using Ca^2+ ionophore was examined using standard methods as described below (Knight et al., Nature 352:524, 1991; Schroeder and Thuleau, Plant Cell 3:555, 1991; Braam, Proc. Natl. Acad. Sci. U.S.A. 89:3213, 1992; McAinsh et al., Plant Cell 4:1113, 1992; Assmann, Ann. Rev. Cell Biol. 9:345, 1993; Poovaiah and Reddy, Crit. Rev. Plant Sci. 12:185, 1993; Trewavas and Knight, Plant Mol. Biol. 26:1329, 1994; Ward and Schroeder, Plant Cell 6:669, 1994; Bethke et al., in Plant Hormones, Davies, Ed., (Kluwer Academic 1995) pp. 298–317; Bush, Ann. Rev. Plant Physiol. Plant Mol. Biol. 46:95, 1995; Monroy and Dhindsa, Plant Cell 7:32, 1995; and Knight et al., Plant Cell 8:489, 1996).
Maize leaf protoplasts transfected with HVA1-SGFP (HVA) or UBI-SGFP (UBI) were treated with 1 mM Ca^2+, 1 mM Ca^2+/100 nM A23187, and 1 mM Ca^2+/100 nM ionomycin, respectively designated “C,” “A,” and “I” in FIG. 2. UBI-SGFP was constructed by inserting the UBI promoter from pAHC27 (Christensen et al., Plant Mol. Biol. 18:675, 1992) into the SGFP vector (Chiu et al., Curr. Biol. 6:225, 1996). […] About 10^5 protoplasts from each treatment were observed using a fluorescence microscope (Chiu et al., Curr. Biol. 6:225, 1996). […]

Assay [4] concerns HVA1 promoter. Nature of the assay: HVA1-LUC reporter co-expression with constitutive PK constructs in maize leaf protoplasts. The conditions noted are these: co-electroporated constitutive (truncated) PK construct, without ABA. The protocol:
For quantitating the effect of various constitutive PKs on stress signaling, another chimeric gene with the HVA1 promoter and the luciferase coding sequence (Leuhrsen et al., Meth. Enz. 216:397, 1992) (HVA1-LUC) was generated. Co-expression experiments were performed by electroporating the reporter (HVA1-LUC) and the effector (35SC4PSK-PK-HA) plasmids together into maize leaf protoplasts as follows.
Maize leaf protoplasts were transfected with HVA1-LUC alone and incubated without (FIG. 3E, “C”) or with 100 μM ABA (FIG. 3E, “A”). HVA1-LUC was also co-electroporated with the PK constructs (1–8) shown in FIG. 3C and FIG. 3D, and incubated without ABA (FIG. 3E, “1–8”). Relative LUC activities from duplicated samples are shown. About 2% of the cell lysates were used for LUC (Luehrsen et al., Meth. Enz. 216:397, 1992) and GUS assays (Sheen, EMBO J. 12:3497, 1993; and Jefferson, Plant Mol. Biol. Rep. 5:387, 1987). The experiment was repeated three times with similar results.

Take `CC1=CC(=O)CC(C)(C)[C@@]1(O)/C=C/C(C)=C\C(=O)O` [ABA, abscisic acid]: the “GFP expression from HVA1-SGFP” value in assay [1] (1 μM ABA (data not shown)) is listed as “visible”. Moreover, the “expression of GFP from HVA1-SGFP” value in assay [1] (100 μM ABA for sixteen hours, fluorescence microscopy) was “enhanced”. Also, the HVA1-LUC expression result in the assay on HVA1 promoter [2] was “activated”. Regarding `C[C@H](CCC(=O)O)C[C@H](C)C[C@H](C)C(=O)/C=C(\O)[C@H](C)C[C@H](C)C/C=C/[C@@H](C)[C@@H](O)[C@@H](C)[C@@H](O)C[C@@H]1CC[C@@](C)([C@H]2CC[C@@](C)([C@@H](C)O)O2)O1` [ionomycin], the “expression of HVA1-GFP” value in assay [3] is “significantly increased”. Same read-out and setting: for `CNc1ccc2oc(C[C@H]3O[C@@]4(CC[C@H]3C)O[C@H]([C@H](C)C(=O)c3ccc[nH]3)[C@H](C)C[C@H]4C)nc2c1C(=O)O` [A23187] the value was “significantly increased”.

B1: ATCDPK1a: truncated constitutively active Arabidopsis CDPK PK domain, SEQ ID NO: 2 (protein, listed as Arabidopsis thaliana)
chain: MANQTQISDKYILGRELGRGEFGITYLCTDRETREALACKSISKRKLRTAVDVEDVRREVTIMSTLPEHPNVVKLKATYEDNETVHLVMELCEGGELFGRIVARGHYTERAAATVARTIAEVVRMCHVNGVMHRDLKPENFLFANKKENSALKAIDFGLSVLFKPGERFTEIVGSPYYMAPEVLKRNYGPEVDVWSAGVILYILLCGVPPFWAETEQGVALAILRGVLDFKRDPWSQISESAKSLVKQMLEPDSTKRLTAQQVLDHPWIQNAKK
For the molecule B1, the “LUC expression controlled by the HVA1 promoter” value in the assay on HVA1 promoter [4] is “specifically activate”.

The values above are taken from patent publication US7084323B1, “Stress-protected transgenic plants” (The General Hospital Corporation, priority 1996, dated 2006).
